Results published in US4046879A, “Antiviral compositions” (priority 1975, dated 1977).

What was measured:
[1] = test system: rhinovirus-ribonucleic acid; experiment: Role of the hydrolyzable β-γ-oxygen-bridge in autocatalytic degradation of rhinovirus RNA; type: biochemical
Text: 3. The essential role of the hydrolyzable β-γ-oxygen-bridge in the nucleoside triphosphate for the autocatalytic degradation of the rhinovirus-ribonucleic acid was shown by: […]

[2] = test system: radioactive-labeled rhinovirus ribonucleic acid; experiment: Synergism test: inducible decomposition of P32-labeled rhinovirus RNA; type: biochemical; settings: 30 minutes, pH 7.6, 36° C.
Protocol: 6. The synergistic effect of the complexing agent (e.g. sodium pyrophosphate) and phosphorylating agent (e.g. adenosine triphosphate) was shown by means of the inducible decomposition of radioactive-labeled rhinovirus ribonucleic acid: Aliquotes (10^6 plaque-forming units) of purified rhinoviruses, the ribonucleic acid of which had been labeled with phosphorus-32, were incubated for 30 minutes with 5 n moles of adenosine triphosphate, either separately or with increasing quantities of sodium pyrophosphate at a pH-value of 7.6 and 36° C. As control values sodium pyrophosphate was used in various concentrations without adenosine triphosphate.

Nc1ncnc2c1ncn2[C@@H]1O[C@H](COP(=O)(O)OP(=O)(O)OP(=O)(O)O)[C@@H](O)[C@H]1O [Adenosine triphosphate, adenosine triphosphate]
removal of P^32-labeled γ-phosphate during the reaction with rhinovirus ([1]; Mg^++ -ion free medium): formation of adenosine diphosphate and rhinovirus-bonded P^32 | % degradation of the viral ribonucleic acid ([2]; adenosine triphosphate 5 n moles, sodium pyrophosphate 0): < 7.5%

Nc1ncnc2c1ncn2[C@@H]1O[C@H](COP(=O)(O)OP(=O)(O)NP(=O)(O)O)[C@@H](O)[C@H]1O [Adenosine-imido-diphosphate]
initiating the autocatalytic inactivation of the rhinoviruses [1]: completely ineffective

O=P([O-])([O-])OP(=O)([O-])[O-].[Na+].[Na+].[Na+].[Na+] [Sodium pyrophosphate, sodium pyrophosphate]
% degradation of the viral ribonucleic acid ([2]; adenosine triphosphate 0, sodium pyrophosphate 50 n moles): < 10% | % degradation of the viral ribonucleic acid ([2]; adenosine triphosphate 0, sodium pyrophosphate 250 n moles): < 10% | % degradation of the viral ribonucleic acid ([2]; adenosine triphosphate 0, sodium pyrophosphate 500 n moles): < 10%

Nc1ncnc2c1ncn2[C@@H]1O[C@H](COP(=O)(O)OP(=O)(O)O)[C@@H](O)[C@H]1O [adenosine diphosphate]
induction of the autocatalytic RNA-degradation [1]: Inactivity
